According to patent US7767240B2, “Microbiological control in poultry processing” (priority 2001, dated 2010):

Legend:
Format in all cases: cell-based
[1] = test system: Escherichia coli ATCC 11229; assay: Individual bacteria count per bird at pH 8 (Example 3); conditions: 25 birds per treatment, control 3055
Procedure: (§1) This group of tests was conducted to determine the effect of Clorox® bleach, Aquatize® biocide, and 1,3-dibromo-5,5-dimethylhydantoin (DBDMH) on carcass bacteria (Escherichia coli field strain) residual after 1,5-hour in a chill tank “soup”. Tests were conducted with soups at pH 7, pH 8 and pH 9 (adjusted by trisodium phosphate) for whole bird bacteria counts. Tests at pH 8 were conducted for individual bacteria counts.
(§2) In general the tests involved normal processing of 56-day-old birds and immersing the carcasses first in a warm bath containing 10^4 per mL Escherichia coli, 10^4 per mL Salmonella enteritidis, 10^4 per mL Pseudomonas aeruginosa, 10^4 per mL Campylobacter jejuni, and 10^4 per mL spoilage bacteria each from […] strains (Listeria monocytogenes and Shigella sonnei). The carcasses were then immersed in a chill tank “soup”, containing normal organic fluids (blood, fat, skin, and meat particles) and containing the microbiocides on the test.
(§3) The bacteria stock solution used for this group of tests was prepared by growing each bacteria sample in the appropriate broth shown in Table 12. […] The containers were observed and not allowed to develop a heavy, cloudy visual appearance which would indicate that the growth had developed for too long a period. Thus the solutions had the appearance of only being foggy or somewhat unclear.
(§4) The procedure used for whole bird wash sampling was as follows: • 1. All samples were kept at ≦50 degrees Fahrenheit following collection. • 2. Microbiological analyses of samples began within 24 hours of sample collection. • 3. Information on the individual sample identification, date of collection, time of collection (phase during shift), treatment group and location of sample point were recorded on each sample bottle. • 4. At each defined sample time, carcasses were taken individually from the processing line wearing latex or rubber gloves. The gloves were rinsed with alcohol between each collection. • 5. Any excess fluid was drained off from the carcass. Each individual carcass was transferred to a sterile stomacher bag. • 6. To each carcass contained in the sterile stomacher bag, 400 mL of Butterfield's Phosphate Diluent (BPD) was added while making sure to pour the BPD into the inside of the carcass cavity. The carcass was rinsed inside and out with a rocking motion for one minute (ca. 35 RPM). This was best done by grasping the broiler carcass with one hand and the closed top of the bag with the other then rocking with a reciprocal motion in a 18-24 inch arc, assuring that all surfaces (interior and exterior of the carcass) were rinsed. • 7. The rinse solutions from each stomacher bag was transferred into the sample bottles, taking care to ensure that the information on the date of collection, time of collection (phase during shift), treatment group and location of sampler point matched that of the sample. • 8. Each bottle was sealed with parafilm and placed into a styrene container with crushed or dry ice or frozen freezer packs for overnight delivery to a testing laboratory. • 9. All filled styrene containers were held in a chilled (not below freezing) area until within 1 to 2 hours of courier collection for shipment.
(§5) In greater detail the trial events and experimental design used in this group of tests were as follows: • a) Test microorganisms used were: • Escherichia coli ATCC 11229 • Pseudomonas aeruginosa ATCC 15442 • Salmonella enteritidis ATCC 13076 • Shigella sonnei ATCC 9290 • Listeria monocytogenes ATCC 7644 • Campylobacter jejuni ATCC 29428 • b) Test Procedure: All test strains were grown individually at 35° C. for 24 hours in the media specified in Table 12. Cells were harvested by centrifugation at 10,000×g for 10 minutes and washed twice with Butterfield's Phosphate Buffer (BPB of pH 7.2). Cells were resuspended in BPB to obtain a cell suspension of approximately 1.0×10^8 CFU/mL for each microorganism. […]

[2] = test system: Listeria monocytogenes ATCC 7644; assay: as above; conditions: 25 birds per treatment, control 2463
Procedure: as §1, §2, §3, §4, §5

[3] = test system: Salmonella enteritidis ATCC 13076; assay: as above; conditions: 25 birds per treatment, control 3969
Procedure: as §1, §2, §3, §4, §5

[4] = test system: Shigella sonnei ATCC 9290; assay: as above; conditions: 25 birds per treatment, control 4551
Procedure: as §1, §2, §3, §4, §5

[5] = test system: planktonic HPC (heterotrophic plate count) bacteria; assay: HPC bacteria eradication in planktonic form, PVC sampling pipes
From the text: In another group of tests, the results of which are depicted in FIGS. 5 through 10, several bromine-based microbiocides of this invention were utilized in tests illustrating their effectiveness in eradicating or controlling Heterotrophic Plate Count bacteria i.e., a mixture of naturally-occurring pathogenic bacteria of various unidentified species. These bacteria were challenged both in the form of biofilms and in planktonic form.
The experimental conditions utilized in these tests involved use of an apparatus consisting of three parallel transparent PVC sampling pipes. These pipes were used for collection of biofilm (i.e., sessile or surface attached) bacteria samples; one as control pipe, one for a relatively low biocide concentration and the third for a higher biocide concentration. The biocide challenge in each case was divided into three phases. First was a 14-day inoculation. Next was a 48-hour disinfection period. Finally a 2-week recovery period was provided. The biocide under test was slug-dosed and during the first hour of exposure, the concentration was adjusted to achieve the desired concentration level.
The source of the naturally-grown heterotrophic plate count (HPC) bacteria was sediment and associated water collected from the recirculating hot water system of a hospital. […]

## CC1(C)C(=O)N(Br)C(=O)N1Br [DBDMH, 1,3-dibromo-5,5-dimethylhydantoin]
[1]; 10 ppm
  average bacteria count per bird, E. coli: 357 per bird
[1]; 20 ppm
  average bacteria count per bird, E. coli: 4 per bird
[2]; 10 ppm
  average bacteria count per bird, L. monocytogenes: 262 per bird
[2]; 20 ppm
  average bacteria count per bird, L. monocytogenes: 6 per bird
[3]; 10 ppm
  average bacteria count per bird, S. enteritidis: 560 per bird
[3]; 20 ppm
  average bacteria count per bird, S. enteritidis: 10 per bird
[4]; 10 ppm
  average bacteria count per bird, S. sonnei: 456 per bird
[4]; 20 ppm
  average bacteria count per bird, S. sonnei: 12 per bird
[5]; 0.5 ppm as bromine, within three hours
  planktonic HPC bacteria eradicated: ~99%
[5]; 5 ppm as bromine, within twelve hours
  planktonic HPC bacteria eradicated: ~99.99%
